{"source": "patent US11447500B2", "about": "“Thienopyridine derivatives and pharmaceutical composition comprising same” (WELLMARKER BIO CO., LTD., priority 2018, dated 2022)", "key": {"RON kinase": {"target": "T1, RON kinase (Homo sapiens, UniProt Q04912)", "T1 construct": "purchased Carna Bioscience", "T1 sequence (Q04912 25-1400)": "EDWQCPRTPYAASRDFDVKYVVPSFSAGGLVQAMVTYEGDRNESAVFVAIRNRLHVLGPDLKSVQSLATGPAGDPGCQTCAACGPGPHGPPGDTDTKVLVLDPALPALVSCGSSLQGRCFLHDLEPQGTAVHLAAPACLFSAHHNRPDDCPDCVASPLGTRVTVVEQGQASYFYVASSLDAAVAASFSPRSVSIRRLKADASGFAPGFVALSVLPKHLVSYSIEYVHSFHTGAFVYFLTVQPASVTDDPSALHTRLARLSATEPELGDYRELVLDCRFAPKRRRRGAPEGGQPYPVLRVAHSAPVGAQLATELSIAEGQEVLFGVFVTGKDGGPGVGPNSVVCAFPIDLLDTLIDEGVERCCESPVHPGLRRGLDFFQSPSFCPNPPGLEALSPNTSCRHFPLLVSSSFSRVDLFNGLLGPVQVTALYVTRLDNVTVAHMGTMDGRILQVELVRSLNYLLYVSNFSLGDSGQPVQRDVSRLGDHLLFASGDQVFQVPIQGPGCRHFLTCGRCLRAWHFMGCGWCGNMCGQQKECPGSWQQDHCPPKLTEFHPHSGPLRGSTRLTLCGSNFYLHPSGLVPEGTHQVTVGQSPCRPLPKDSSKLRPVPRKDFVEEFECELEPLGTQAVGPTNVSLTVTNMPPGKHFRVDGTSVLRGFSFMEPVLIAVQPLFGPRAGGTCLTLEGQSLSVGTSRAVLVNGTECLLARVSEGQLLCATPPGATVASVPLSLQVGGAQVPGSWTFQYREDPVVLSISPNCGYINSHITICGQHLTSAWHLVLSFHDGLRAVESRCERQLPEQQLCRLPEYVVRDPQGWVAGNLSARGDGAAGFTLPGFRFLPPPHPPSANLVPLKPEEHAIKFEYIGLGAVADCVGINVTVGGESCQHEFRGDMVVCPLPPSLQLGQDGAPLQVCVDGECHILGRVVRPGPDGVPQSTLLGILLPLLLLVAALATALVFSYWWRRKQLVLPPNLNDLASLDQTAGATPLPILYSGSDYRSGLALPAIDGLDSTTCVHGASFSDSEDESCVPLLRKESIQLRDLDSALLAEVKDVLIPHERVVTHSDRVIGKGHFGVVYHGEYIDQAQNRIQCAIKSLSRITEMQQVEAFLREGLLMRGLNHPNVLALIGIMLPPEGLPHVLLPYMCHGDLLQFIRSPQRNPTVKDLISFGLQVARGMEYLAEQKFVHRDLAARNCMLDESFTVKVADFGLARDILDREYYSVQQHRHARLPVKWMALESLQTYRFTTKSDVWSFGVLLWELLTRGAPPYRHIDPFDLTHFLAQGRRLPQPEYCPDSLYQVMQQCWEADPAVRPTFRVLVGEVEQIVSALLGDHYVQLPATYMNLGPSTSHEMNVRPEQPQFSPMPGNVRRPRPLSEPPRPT", "experiment": "RON kinase enzyme inhibitory activity, FRET (TR-FRET) technique", "format": "biochemical", "conditions": "60 min reaction", "experimental": "The enzyme inhibitory activity (IC50) of the thienopyridine derivative was measured using FRET (fluorescence resonance energy transfer) technique. RON kinase (Carna Bioscience) was diluted with a kinase assay buffer (50 mM HEPES pH 7.5, 1 mM EGTA, 10 mM MgCl2, 2 mM DTT, and 0.01% Tween-20) to a concentration of 2× (0.4 nM) the final reaction concentration and the dilution was added to a 384-well plate at 5 μL/well. As sample compounds, the compounds synthesized in the examples of the present invention and the compounds of the comparative examples were used. The sample compounds were respectively dissolved in 100% DMSO to obtain 1 mM stock solutions, which were then subjected to eight 10-fold serial dilutions. The sample compounds were diluted with the kinase assay buffer to a concentration of 4× the final reaction concentration, and the dilutions were added to the 384-well plate at 2.5 μL/well. The plate was incubated at room temperature for 15 minutes. Next, 0.25 M ATP solution (Sigma Aldrich) was diluted with the kinase reaction buffer to a concentration of 4× (60 μM) the final reaction concentration, and a tyrosine peptide substrate (Perkin-Elmer) was diluted therein to a concentration of 4× (400 nM) the final reaction concentration. The dilution was added to the 384-well plate at 2.5 μL/well. Then, the 384-well plate was incubated at room temperature and the reaction was allowed to proceed for 60 minutes. After 60 minutes, EDTA (Sigma Aldrich) was diluted with TR-FRET detection buffer (Perkin-Elmer) to a concentration of 4× (40 mM) the final reaction concentration. A europium-labeled anti-phosphotyrosine antibody (Perkin-Elmer) was diluted in the above EDTA dilution to a concentration of 4× (8 nM) the final reaction concentration to prepare a stop solution of the RON kinase reaction. The stop solution was added to the 384-well plate at 10 μL/well to terminate the reaction, and the plate was incubated at room temperature for 60 minutes. Thereafter, the plate was read on Victor X5 plate reader (Perkin-Elmer). At this time, the excitation wavelength was 340 nm and the emission wavelengths were 620 nm and 665 nm. The IC50 values of the sample compounds were determined using GraphPad Prism™ 5 by expressing the emission energy at 665 nm as a function of the sample compound concentration."}, "[1]": {"tested_on": "RON-activated KM12C colon cancer cell line", "experiment": "Cell killing efficacy, trypan blue exclusion assay, KM12C", "format": "cell-based", "conditions": "48 hours", "experimental": "(§1) Two colon cancer cell lines, RON-activated KM12C (80015, KCLB, MEM+10% FBS) and RON-mutated (Δ160) HT-29 (30038, KCLB, RPMI+10% FBS) were prepared in 6-well plates at 5×10^4 cells/well, respectively. After 24 hours, while freshly changing the medium, the sample compounds were added to the wells at a concentration of 1 μM or 5 μM and the plates were allowed to stand for 48 hours.\n(§2) As the sample compounds, the compounds synthesized in the examples of the present invention and the compounds of the comparative examples were used.\n(§3) After 48 hours, the cell suspensions were collected and centrifuged (1,500 rpm, 4 min.) to obtain the cells, and live cells and dead cells were quantitated (n=2) through a trypan blue (15250-061, Gibco) exclusion assay. The statistical analysis was performed using Excel™ T-test from Microsoft.\n(§4) The cell death rates of the compounds of Examples and Comparative Examples were respectively measured and the results are shown in Table 4 as relative ratios to Comparative Example 1."}, "[2]": {"tested_on": "RON-mutated (Δ160) HT-29 colon cancer cell line", "experiment": "Cell killing efficacy, trypan blue exclusion assay, HT-29", "format": "cell-based", "conditions": "HT29 cell, 48 hours", "experimental": "as §1, §2, §3, §4"}}, "note": "Structures can show the parent of a compound that is named as a salt.", "data": [{"smiles": "COCCNCc1ccc(-c2cc3nccc(Oc4ccc(NC(=O)c5cc(Br)cn(-c6ccc(F)cc6)c5=O)cc4F)c3s2)nc1", "note": "[Example 23, 5-bromo-N-(3-fluoro-4-{[2-(5-1 [(2-methoxyethyl)amino]methyl}pyridin-2-yl)thieno[3,2-b]pyridin-7-yl]oxy}phenyl)-1-(4-fluorophenyl)-2-oxo-1,2-dihydropyridine-3-carboxamide Hydrochloride]", "values": [{"measurement": "IC50", "setting": "RON kinase", "value": 8.05, "unit": "nM"}]}, {"smiles": "CCOc1ccn(-c2ccc(Cl)cc2)c(=O)c1C(=O)Nc1ccc(Oc2ccnc3cc(-c4ccc(CN5CCOCC5)cn4)sc23)c(F)c1", "note": "[Example 35, 1-(4-chlorophenyl)-4-ethoxy-N-[3-fluoro-4-({2-[5-(morpholinomethyl)pyridin-2-yl]thieno[3,2-b]pyridin-7-yl}oxy)phenyl]-2-oxo-1,2-dihydropyridine-3-carboxamide Hydrochloride]", "values": [{"measurement": "IC50", "setting": "RON kinase", "value": 2.55, "unit": "nM"}]}, {"smiles": "CCOc1ccn(-c2ccc(F)cc2)c(=O)c1C(=O)Nc1ccc(Oc2ccnc3cc(-c4ccc(CN5CCOCC5)cn4)sc23)cc1Cl", "note": "[Example 37, N-[2-chloro-4-({2-[5-(morpholinomethyl)pyridin-2-yl]thieno[3,2-b]pyridin-7-yl}oxy)phenyl]-4-ethoxy-1-(4-fluorophenyl)-2-oxo-1,2-dihydropyridine-3-carboxamide Hydrochloride]", "values": [{"measurement": "IC50", "setting": "RON kinase", "value": 10.3, "unit": "nM"}]}, {"smiles": "COCCNCc1ccc(-c2cc3nccc(Oc4ccc(NC(=O)c5c(C)cnn(-c6ccc(F)cc6)c5=O)cc4F)c3s2)nc1", "note": "[Example 17, N-(3-fluoro-4-{[2-(5-{[(2-methoxyethyl)amino]methyl}pyridin-2-yl)thieno[3,2-b]pyridin-7-yl]oxy}phenyl)-2-(4-fluorophenyl)-5-methyl-3-oxo-2,3-dihydropyridazine-4-carboxamide Hydrochloride]", "values": [{"measurement": "IC50", "setting": "RON kinase", "value": 1.59, "unit": "nM"}]}, {"smiles": "CCOc1ccn(-c2ccc(F)cc2)c(=O)c1C(=O)Nc1ccc(Oc2ccnc3cc(-c4ccc(CNCCOC)cn4)sc23)cc1Cl", "note": "[Example 26, N-(2-chloro-4-{[2-(5-{[(2-methoxyethyl)amino]methyl}pyridin-2-yl)thieno[3,2-b]pyridin-7-yl]oxy}phenyl)-4-ethoxy-1-(4-fluorophenyl)-2-oxo-1,2-dihydropyridine-3-carboxamide Hydrochloride]", "values": [{"measurement": "IC50", "setting": "RON kinase", "value": 3.7, "unit": "nM"}]}, {"smiles": "CCOc1ccn(-c2cccc(OC)c2)c(=O)c1C(=O)Nc1ccc(Oc2ccnc3cc(-c4ccc(CNCCOC)cn4)sc23)c(F)c1", "note": "[Example 16, 4-ethoxy-N-(3-fluoro-4-{[2-(5-{[(2-methoxyethyl)amino]methyl}pyridin-2-yl)thieno[3,2-b]pyridin-7-yl]oxy}phenyl)-1-(3-methoxyphenyl)-2-oxo-1,2-dihydropyridine-3-carboxamide Hydrochloride]", "values": [{"measurement": "IC50", "setting": "RON kinase", "value": 3.43, "unit": "nM"}]}, {"smiles": "CCOc1ccn(-c2ccc(OC)cc2)c(=O)c1C(=O)Nc1ccc(Oc2ccnc3cc(-c4ccc(CNCCOC)cn4)sc23)c(F)c1", "note": "[Example 15, 4-ethoxy-N-(3-fluoro-4-{[2-(5-{[(2-methoxyethyl)amino]methyl}pyridin-2-yl)thieno[3,2-b]pyridin-7-yl]oxy}phenyl)-1-(4-methoxyphenyl)-2-oxo-1,2-dihydropyridine-3-carboxamide Hydrochloride]", "values": [{"measurement": "IC50", "setting": "RON kinase", "value": 2.93, "unit": "nM"}]}, {"smiles": "CCOc1ccn(-c2ccc(C(F)(F)F)cc2)c(=O)c1C(=O)Nc1ccc(Oc2ccnc3cc(-c4ccc(CNCCOC)cn4)sc23)c(F)c1", "note": "[Example 12, 4-ethoxy-N-(3-fluoro-4-{[2-(5-{[(2-methoxyethyl)amino]methyl}pyridin-2-yl)thieno[3,2-b]pyridin-7-yl]oxy}phenyl)-2-oxo-1-(4-(trifluoromethyl)phenyl)-1,2-dihydropyridine-3-carboxamide Hydrochloride]", "values": [{"measurement": "IC50", "setting": "RON kinase", "value": 2.1, "unit": "nM"}]}, {"smiles": "COCCNCc1ccc(-c2cc3nccc(Oc4ccc(NC(=O)c5cc(Cl)cn(-c6ccc(F)cc6)c5=O)cc4F)c3s2)nc1", "note": "[Example 24, 5-chloro-N-(3-fluoro-4-{[2-(5-{[(2-methoxyethyl)amino]methyl}pyridin-2-yl)thieno[3,2-b]pyridin-7-yl]oxy}phenyl)-1-(4-fluorophenyl)-2-oxo-1,2-dihydropyridine-3-carboxamide Hydrochloride]", "values": [{"measurement": "IC50", "setting": "RON kinase", "value": 24.2, "unit": "nM"}]}, {"smiles": "COCCNCc1ccc(-c2cc3nccc(Oc4ccc(NC(=O)c5cc(C)cn(-c6ccc(F)cc6)c5=O)cc4F)c3s2)nc1", "note": "[Example 29, N-(3-fluoro-4-{[-2-(5-{[(2-methoxyethyl)amino]methyl}pyridin-2-yl)thieno[3,2-b]pyridin-7-yl]oxy}phenyl)-1-(4-fluorophenyl)-5-methyl-2-oxo-1,2-dihydropyridine-3-carboxamide Hydrochloride]", "values": [{"measurement": "IC50", "setting": "RON kinase", "value": 1.21, "unit": "nM"}]}, {"smiles": "CCOc1ccn(-c2ccc(F)cc2)c(=O)c1C(=O)Nc1ccc(Oc2ccnc3cc(-c4ccc(CN5CCOCC5)cn4)sc23)c(Cl)c1", "note": "[Example 36, N-[3-chloro-4-({2-[5-(morpholinomethyl)pyridin-2-yl]thieno[3,2-b]pyridin-7-yl}oxy)phenyl]-4-ethoxy-1-(4-fluorophenyl)-2-oxo-1,2-dihydropyridine-3-carboxamide Hydrochloride]", "values": [{"measurement": "IC50", "setting": "RON kinase", "value": 2.28, "unit": "nM"}]}, {"smiles": "COCCNCc1ccc(-c2cc3nccc(Oc4ccc(NC(=O)c5cccn(-c6ccccc6)c5=O)cc4F)c3s2)nc1", "note": "[Example 5, N-(3-fluoro-4-{[2-(5-{[(2-methoxyethyl)amino]methyl}pyridin-2-yl)thieno[3,2-b]pyridin-7-yl]oxy}phenyl)-2-oxo-1-phenyl-1,2-dihydropyridine-3-carboxamide Hydrochloride]", "values": [{"measurement": "IC50", "setting": "RON kinase", "value": 1.15, "unit": "nM"}]}, {"smiles": "CCOc1ccn(-c2ccc(F)cc2)c(=O)c1C(=O)Nc1ccc(Oc2ccnc3cc(-c4ccc(CN(CCOC)C(=O)OC(C)(C)C)cn4)sc23)c(F)c1", "note": "[Example 6, t-butyl {[6-(7-{4-[4-ethoxy-1-(4-fluorophenyl)-2-oxo-1,2-dihydropyridine-3-carboxamido]-2-fluorophenoxy}thieno[3,2-b]pyridin-2-yl)pyridin-3-yl]methyl}(2-methoxyethyl)carbamate]", "values": [{"measurement": "IC50", "setting": "RON kinase", "value": 21.9, "unit": "nM"}]}, {"smiles": "CCOc1ccn(-c2ccccc2)c(=O)c1C(=O)Nc1ccc(Oc2ccnc3cc(-c4ccc(CN5CCN(C)CC5)cn4)sc23)c(F)c1.Cl", "note": "[Example 34]", "values": [{"measurement": "Cell death rate (Relative to Comp. Ex. 1)", "setting": "[1]; 1 μM", "value": "x 2.07"}, {"measurement": "Cell death rate (Relative to Comp. Ex. 1)", "setting": "[1]; 5 μM", "value": "x 1.11"}, {"measurement": "Cell death rate (Relative to Comp. Ex. 1)", "setting": "[2]; 1 μM", "value": "x 2.12"}, {"measurement": "Cell death rate (Relative to Comp. Ex. 1)", "setting": "[2]; 5 μM", "value": "x 1.66"}]}, {"smiles": "COCCNCc1ccc(-c2cc3nccc(Oc4ccc(NC(=O)c5cc(C)c(C)n(-c6ccc(F)cc6)c5=O)cc4F)c3s2)nc1", "note": "[Example 27, N-(3-fluoro-4-([2-(5-{[(2-methoxyethyl)amino)methyl]pyridin-2-yl}thieno[3,2-b]pyridin-7-yl)oxy]phenyl}-1-(4-fluorophenyl)-5,6-dimethyl-2-oxo-1,2-dihydropyridine-3-carboxamide Hydrochloride]", "values": [{"measurement": "IC50", "setting": "RON kinase", "value": 1.93, "unit": "nM"}]}, {"smiles": "COCCNCc1ccc(-c2cc3nccc(Oc4ccc(NC(=O)c5c(OC)ccn(-c6ccc(Cl)cc6)c5=O)cc4F)c3s2)nc1", "note": "[Example 13, 1-(4-chlorophenyl)-N-(3-fluoro-4-{[2-(5-{[(2-methoxyethyl)amino]methyl}pyridin-2-yl)thieno[3,2-b]pyridin-7-yl]oxy}phenyl)-4-methoxy-2-oxo-1,2-dihydropyridine-3-carboxamide Hydrochloride]", "values": [{"measurement": "IC50", "setting": "RON kinase", "value": 1.14, "unit": "nM"}]}, {"smiles": "COCCNCc1ccc(-c2cc3nccc(Oc4ccc(NC(=O)c5ccnn(-c6ccccc6)c5=O)cc4F)c3s2)nc1", "note": "[Example 19, N-(3-fluoro-4-{[2-(5-{[(2-methoxyethyl)amino]methyl}pyridin-2-yl)thieno[3,2-b]pyridin-7-yl]oxy}phenyl)-3-oxo-2-phenyl-2,3-dihydropyridazine-4-carboxamide Hydrochloride]", "values": [{"measurement": "IC50", "setting": "RON kinase", "value": 3.66, "unit": "nM"}]}, {"smiles": "COCCNCc1ccc(-c2cc3nccc(Oc4ccc(NC(=O)c5c(OC)ccn(-c6ccc(F)cc6)c5=O)c(Cl)c4)c3s2)nc1", "note": "[Example 10, N-(2-chlor-4-{[-2-(5-{[(2-methoxyethyl)amino]methyl}pyridin-2-yl)thieno[3,2-b]pyridin-7-yl]oxy}phenyl)-1-(4-fluorophenyl)-4-methoxy-2-oxo-1,2-dihydropyridine-3-carboxamide Hydrochloride]", "values": [{"measurement": "IC50", "setting": "RON kinase", "value": 5.66, "unit": "nM"}]}]}
